In publication PMC10066365, “Nemacol is a small molecule inhibitor of C. elegans vesicular acetylcholine transporter with anthelmintic potential” (Nature Communications, 2023):
Several values for one entry are separate records, joined by “and”; a condition that tells them apart may be missing. Equal values may be shown once.

Legend:
C. elegans = C. elegans motor phenotype scoring on solid media (Punc/jerky-unc, coiled, paralyzed), wild-type young adults; format: in vivo, Caenorhabditis elegans; conditions: for atypical locomotion (number of animals) / no phene (number of animals) / paralyzed (number of animals) / any phene: mean % fraction of young adults exhibiting any phenotype (coiled, jerky-Unc or paralyzed) / coiled (number of animals): one hour; for atypical locomotion (number of animals) / no phene (number of animals) / paralyzed (number of animals) / coiled (number of animals): young adults, 20 animals per trial, single technical replicate; for any phene: mean % fraction of young adults exhibiting any phenotype (coiled, jerky-Unc or paralyzed): mean of three biological replicates; for Fraction Coiled / Fraction Jerky-Unc / Fraction No Phenotype / Fraction Parayzed: 60 min
Pristionchus pacificus = Pristionchus pacificus motor disruption dose-response on solid media, 1 h; conditions: for mean % any phene (coiled, jerky-Unc or paralyzed): Pristionchus pacificus young adults, mean of three biological replicates
[1] = 15 µM, N2 adult worms, Averages of 3 biological repeats
[2] = 15 µM, N2 adult worms, Bio Rep 1
[3] = 15 µM, N2 adult worms, Bio Rep 3
[4] = 15 µM, N2 adult worms, Bio rep 2
[5] = 30 µM, N2 adult worms, Averages of 3 biological repeats
[6] = 30 µM, N2 adult worms, Bio Rep 1
[7] = 30 µM, N2 adult worms, Bio Rep 3
[8] = 30 µM, N2 adult worms, Bio rep 2
[9] = 60 µM, N2 adult worms, Averages of 3 biological repeats
[10] = 60 µM, N2 adult worms, Bio Rep 1
[11] = 60 µM, N2 adult worms, Bio Rep 3
[12] = 60 µM, N2 adult worms, Bio rep 2
[13] = 120 µM, N2 adult worms, Averages of 3 biological repeats
[14] = 120 µM, N2 adult worms, Bio Rep 1
[15] = 120 µM, N2 adult worms, Bio Rep 3
[16] = 120 µM, N2 adult worms, Bio rep 2
[17] = 240 µM, N2 adult worms, Averages of 3 biological repeats
[18] = 240 µM, N2 adult worms, Bio Rep 1
[19] = 240 µM, N2 adult worms, Bio Rep 3
[20] = 240 µM, N2 adult worms, Bio rep 2
[21] = N2, 15 µM, adult worms, average of 3 biological repeats
[22] = N2, 30 µM, adult worms, average of 3 biological repeats
[23] = N2, 60 µM, adult worms, average of 3 biological repeats
[24] = N2, 120 µM, adult worms, average of 3 biological repeats
[25] = N2, 240 µM, adult worms, average of 3 biological repeats

O[C@@H]1CCCC[C@H]1N1CCC(c2ccccc2)CC1 (racemic) [vesamicol, reference compound]
atypical locomotion (number of animals) (C. elegans; 3.75uM): 0 | no phene (number of animals) (C. elegans; 3.75uM): 20 | paralyzed (number of animals) (C. elegans; 3.75uM): 0 | any phene: mean % fraction of young adults exhibiting any phenotype (coiled, jerky-Unc or paralyzed) (C. elegans; 3.75uM): 0% | Fraction Coiled (C. elegans; [1]): 0.00 | Fraction Jerky-Unc (C. elegans; [1]): 0.17 | Fraction No Phenotype (C. elegans; [1]): 0.83 | Fraction Parayzed (C. elegans; [1]): 0.00 | Fraction Jerky-Unc (C. elegans; [2]): 0.2778 | Fraction No Phenotype (C. elegans; [2]): 0.72 | Fraction Parayzed (C. elegans; [2]): 0 | Fraction Coiled (C. elegans; [3]): 0.00 | Fraction Jerky-Unc (C. elegans; [3]): 0.1667 | Fraction No Phenotype (C. elegans; [3]): 0.83 | Fraction Parayzed (C. elegans; [3]): 0 | Fraction Coiled (C. elegans; [4]): 0.00 | Fraction Jerky-Unc (C. elegans; [4]): 0.05556 | Fraction No Phenotype (C. elegans; [4]): 0.94 | Fraction Parayzed (C. elegans; [4]): 0 | atypical locomotion (number of animals) (C. elegans; 15uM): 0 | coiled (number of animals) (C. elegans; 15uM): 0 | no phene (number of animals) (C. elegans; 15uM): 20 | paralyzed (number of animals) (C. elegans; 15uM): 0 | any phene: mean % fraction of young adults exhibiting any phenotype (coiled, jerky-Unc or paralyzed) (C. elegans; 15uM): 0% | Fraction Coiled (C. elegans; [5]): 0.00 | Fraction Jerky-Unc (C. elegans; [5]): 0.41 | Fraction No Phenotype (C. elegans; [5]): 0.59 | Fraction Parayzed (C. elegans; [5]): 0.00 | Fraction Coiled (C. elegans; [6]): 0.00 | Fraction Jerky-Unc (C. elegans; [6]): 0.3889 | Fraction No Phenotype (C. elegans; [6]): 0.61 | Fraction Parayzed (C. elegans; [6]): 0 | Fraction Coiled (C. elegans; [7]): 0.00 | Fraction Jerky-Unc (C. elegans; [7]): 0.4444 | Fraction No Phenotype (C. elegans; [7]): 0.56 | Fraction Parayzed (C. elegans; [7]): 0 | Fraction Coiled (C. elegans; [8]): 0.00 | Fraction Jerky-Unc (C. elegans; [8]): 0.3889 | Fraction No Phenotype (C. elegans; [8]): 0.61 | Fraction Parayzed (C. elegans; [8]): 0 | Fraction Coiled (C. elegans; [9]): 0.0566 | Fraction Jerky-Unc (C. elegans; [9]): 0.62 | Fraction No Phenotype (C. elegans; [9]): 0.32 | Fraction Parayzed (C. elegans; [9]): 0.00 | Fraction Coiled (C. elegans; [10]): 0.0556 | Fraction Jerky-Unc (C. elegans; [10]): 0.7222 | Fraction No Phenotype (C. elegans; [10]): 0.22 | Fraction Parayzed (C. elegans; [10]): 0 | Fraction Coiled (C. elegans; [11]): 0.06 | Fraction Jerky-Unc (C. elegans; [11]): 0.5294 | Fraction No Phenotype (C. elegans; [11]): 0.41 | Fraction Parayzed (C. elegans; [11]): 0 | Fraction Coiled (C. elegans; [12]): 0.0556 | Fraction Jerky-Unc (C. elegans; [12]): 0.6111 | Fraction No Phenotype (C. elegans; [12]): 0.33 | Fraction Parayzed (C. elegans; [12]): 0 | atypical locomotion (number of animals) (C. elegans; 60uM): 0 and 1 and 3 and 5 and 2 | coiled (number of animals) (C. elegans; 60uM): 1 and 0 | no phene (number of animals) (C. elegans; 60uM): 19 and 18 and 17 and 15 | paralyzed (number of animals) (C. elegans; 60uM): 0 | any phene: mean % fraction of young adults exhibiting any phenotype (coiled, jerky-Unc or paralyzed) (C. elegans; 60uM): 11.6667% | Fraction Coiled (C. elegans; [13]): 0.0556 | Fraction Jerky-Unc (C. elegans; [13]): 0.74 | Fraction No Phenotype (C. elegans; [13]): 0.17 | Fraction Parayzed (C. elegans; [13]): 0.037 | Fraction Coiled (C. elegans; [14]): 0.11 | Fraction Jerky-Unc (C. elegans; [14]): 0.7778 | Fraction No Phenotype (C. elegans; [14]): 0.0556 | Fraction Parayzed (C. elegans; [14]): 0.05556 | Fraction Coiled (C. elegans; [15]): 0.00 | Fraction Jerky-Unc (C. elegans; [15]): 0.7222 | Fraction No Phenotype (C. elegans; [15]): 0.28 | Fraction Parayzed (C. elegans; [15]): 0 | Fraction Coiled (C. elegans; [16]): 0.0556 | Fraction Jerky-Unc (C. elegans; [16]): 0.7222 | Fraction No Phenotype (C. elegans; [16]): 0.17 | Fraction Parayzed (C. elegans; [16]): 0.05556 | Fraction Coiled (C. elegans; [17]): 0.11 | Fraction Jerky-Unc (C. elegans; [17]): 0.80 | Fraction No Phenotype (C. elegans; [17]): 0.0741 | Fraction Parayzed (C. elegans; [17]): 0.0185 | Fraction Coiled (C. elegans; [18]): 0.11 | Fraction Jerky-Unc (C. elegans; [18]): 0.8333 | Fraction No Phenotype (C. elegans; [18]): 0.00 | Fraction Parayzed (C. elegans; [18]): 0.05556 | Fraction Coiled (C. elegans; [19]): 0.11 | Fraction Jerky-Unc (C. elegans; [19]): 0.7222 | Fraction No Phenotype (C. elegans; [19]): 0.17 | Fraction Parayzed (C. elegans; [19]): 0 | Fraction Coiled (C. elegans; [20]): 0.11 | Fraction Jerky-Unc (C. elegans; [20]): 0.8333 | Fraction No Phenotype (C. elegans; [20]): 0.0556 | Fraction Parayzed (C. elegans; [20]): 0 | EC50 (C. elegans; Caenorhabditis elegans, 1 h): 38.6 ± 3.5 µM | Fraction Coiled (C. elegans; [21]): 0.00 | Fraction Jerky-Unc (C. elegans; [21]): 0.17 | Fraction No Phenotype (C. elegans; [21]): 0.83 | Fraction Parayzed (C. elegans; [21]): 0.00 | Fraction Coiled (C. elegans; [22]): 0.00 | Fraction Jerky-Unc (C. elegans; [22]): 0.41 | Fraction No Phenotype (C. elegans; [22]): 0.59 | Fraction Parayzed (C. elegans; [22]): 0.00 | Fraction Coiled (C. elegans; [23]): 0.0566 | Fraction Jerky-Unc (C. elegans; [23]): 0.62 | Fraction No Phenotype (C. elegans; [23]): 0.32 | Fraction Parayzed (C. elegans; [23]): 0.00 | Fraction Coiled (C. elegans; [24]): 0.0556 | Fraction Jerky-Unc (C. elegans; [24]): 0.74 | Fraction No Phenotype (C. elegans; [24]): 0.17 | Fraction Parayzed (C. elegans; [24]): 0.037 | Fraction Coiled (C. elegans; [25]): 0.11 | Fraction Jerky-Unc (C. elegans; [25]): 0.80 | Fraction No Phenotype (C. elegans; [25]): 0.0741 | Fraction Parayzed (C. elegans; [25]): 0.0185 | fold difference in C. elegans EC50, Vesamicol vs Nemacol-1 (C. elegans; Vesamicol EC50 higher, Nemacol-1 more potent): 5.4 fold | mean % any phene (coiled, jerky-Unc or paralyzed) (Pristionchus pacificus; conc 3.75, observed at one hour): 0% | mean % any phene (coiled, jerky-Unc or paralyzed) (Pristionchus pacificus; conc 15, observed at one hour): 0.8333% | mean % any phene (coiled, jerky-Unc or paralyzed) (Pristionchus pacificus; conc 60, observed at one hour): 9.167% | EC50 (Pristionchus pacificus; Pristionchus pacificus, 1 h, read-out: P. pacificus motor disruption EC50): > 60 µM
